Experimental data from PMC8908504 (ACS Omega, 2022).

target: KV7.2/3 channel (Homo sapiens, UniProt O43525+O43526); assay: KV7.2/3 channel opening assay (thallium-sensitive fluorescence); format: cell-based; settings: HEK293 cells overexpressing KV7.2/3; footnote e
Description: To evaluate the biological activity, the synthesized analogues were tested on HEK293 cells overexpressing the KV7.2/3 channel. The measurement was carried out in a fluorescence-based assay in which a thallium-sensitive dye generated the fluorescence signal. Due to its similarity to potassium, thallium can also pass through KV7 channels. The intensity of the fluorescence signal correlates with the amount of intracellular thallium and thus with the ability of the compounds to open KV7 channels. To determine the potency, the fluorescence intensity was measured as a function of the compound concentration. The efficacy was determined relative to the maximum fluorescence signal induced by flupirtine. For a summary of the activity data, see Table 2.
The cell culture of the KV7.2/3 transfected HEK293 cells (HEK293 KCNQ2/3 cells from SB Drug Discovery, Glasgow, UK) used for the assay and the processing of the obtained data were performed as described in earlier work.[27],[29] Briefly, 60,000 cells/well were seeded into 96-well microtiter plates for fluorescence-based assays (4titude Vision Plate Black 96-Well microtiter plates from ThermoScientic) and incubated for 24 h. After incubation, the medium was changed to 200 μL/well loading buffer containing 5 mmol/L probenecid and incubated for 1 h at room temperature. Subsequently, the test compounds dissolved in DMSO were added to the wells to the desired concentrations and further incubated for 30 min. As a control, the loading buffer with a DMSO concentration corresponding to the substance samples (1% (V/V)) was used. Fluorescence measurements were performed on the Infinite F200 Pro plate reader (Tecan) set at […]/emission wavelengths of 485 and 535 nm, respectively. After measuring the background fluorescence (baseline) for 20 s, a stimulus buffer (25 mmol/L K^+, 15 mmol/L Tl^+) was added just before the fluorescence of each well was measured.
The calculations to obtain dose–response curves were performed in the same manner as in previous investigations.[27],[29] Briefly, the fluorescence intensity was normalized with the baseline signal (F/F0) at each time of signal acquisition. To obtain the corrected negative control, a value of 1 was subtracted from the normalized value of the negative control. Subsequently, the value of the corrected negative control was subtracted from the maximum (corr. F/F0) value of a compound in a defined concentration (corr. ΔF/F0) and then plotted against the logarithmic concentration. The EC50 value was calculated as relative values with GraphPad Prism 6 (La Jolla, CA, USA), that is, the inflection points of the sigmoidal curves. The Emax value, the maximum response, indicates the intrinsic activity of a compound. This value was determined relative to flupirtine (1), where the maximum corr. ΔF/F0 value of flupirtine (1) was defined as 100%. The EC50 and Emax value of a compound is the mean of at least three independent experiments ± standard deviation (SD).

Chain of KV7.2/3 channel (O43526 whole entry): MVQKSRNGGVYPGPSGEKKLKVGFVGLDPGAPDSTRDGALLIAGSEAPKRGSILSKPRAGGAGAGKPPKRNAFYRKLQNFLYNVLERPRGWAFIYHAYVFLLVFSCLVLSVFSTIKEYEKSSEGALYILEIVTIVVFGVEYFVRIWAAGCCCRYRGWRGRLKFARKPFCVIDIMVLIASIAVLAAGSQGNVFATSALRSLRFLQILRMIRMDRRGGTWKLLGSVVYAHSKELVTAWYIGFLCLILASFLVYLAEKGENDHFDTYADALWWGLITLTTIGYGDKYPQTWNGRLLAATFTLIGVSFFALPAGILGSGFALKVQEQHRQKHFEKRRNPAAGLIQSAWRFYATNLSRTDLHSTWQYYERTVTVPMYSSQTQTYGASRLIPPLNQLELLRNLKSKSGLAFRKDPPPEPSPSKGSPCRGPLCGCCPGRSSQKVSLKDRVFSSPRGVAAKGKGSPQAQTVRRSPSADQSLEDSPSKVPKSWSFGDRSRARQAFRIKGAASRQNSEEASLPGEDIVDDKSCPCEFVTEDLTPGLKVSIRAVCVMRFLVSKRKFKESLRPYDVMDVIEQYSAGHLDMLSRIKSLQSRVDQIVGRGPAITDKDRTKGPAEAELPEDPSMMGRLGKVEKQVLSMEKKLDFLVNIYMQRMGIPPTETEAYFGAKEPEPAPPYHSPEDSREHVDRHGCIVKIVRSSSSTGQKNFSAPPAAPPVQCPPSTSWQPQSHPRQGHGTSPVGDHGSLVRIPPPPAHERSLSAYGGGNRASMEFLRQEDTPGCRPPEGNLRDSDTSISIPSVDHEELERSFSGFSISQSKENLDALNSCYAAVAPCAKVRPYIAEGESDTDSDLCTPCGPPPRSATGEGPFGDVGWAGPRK
Chain of KV7.2/3 channel (O43525 whole entry): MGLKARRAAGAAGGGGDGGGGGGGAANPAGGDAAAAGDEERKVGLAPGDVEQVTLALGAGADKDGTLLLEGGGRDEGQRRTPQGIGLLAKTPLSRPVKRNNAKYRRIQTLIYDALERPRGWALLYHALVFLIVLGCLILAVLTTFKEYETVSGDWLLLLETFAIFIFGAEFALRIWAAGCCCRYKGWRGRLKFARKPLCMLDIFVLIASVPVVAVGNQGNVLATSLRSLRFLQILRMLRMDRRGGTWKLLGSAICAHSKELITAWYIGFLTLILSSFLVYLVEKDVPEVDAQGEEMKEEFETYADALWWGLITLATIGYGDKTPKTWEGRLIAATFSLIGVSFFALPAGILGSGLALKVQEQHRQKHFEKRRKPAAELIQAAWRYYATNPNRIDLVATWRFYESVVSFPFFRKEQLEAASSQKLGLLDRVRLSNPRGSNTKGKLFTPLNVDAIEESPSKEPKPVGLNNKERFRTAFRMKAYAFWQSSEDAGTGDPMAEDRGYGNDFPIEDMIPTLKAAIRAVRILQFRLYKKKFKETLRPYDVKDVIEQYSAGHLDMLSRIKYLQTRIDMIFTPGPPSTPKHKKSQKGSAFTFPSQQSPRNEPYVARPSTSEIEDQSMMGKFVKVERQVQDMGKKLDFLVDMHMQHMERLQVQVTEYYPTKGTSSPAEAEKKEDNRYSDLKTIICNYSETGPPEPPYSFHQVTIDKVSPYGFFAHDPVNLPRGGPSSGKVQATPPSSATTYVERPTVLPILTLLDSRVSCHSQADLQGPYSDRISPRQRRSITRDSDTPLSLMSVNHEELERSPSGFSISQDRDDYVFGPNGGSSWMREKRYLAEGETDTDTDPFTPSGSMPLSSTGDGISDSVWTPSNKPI

SMILES | EC50
CCCCNC(=O)c1ccc(NCc2ccc(F)cc2)nc1N [compound 21, 2-Amino-N-butyl-6-[(4-fluorobenzyl)amino]nicotinamide] | > 10 µM
CCCNC(=O)c1ccc(NCc2ccc(F)cc2)cc1CC.Cl [compound 47, 2-Ethyl-4-[(4-fluorobenzyl)amino]-N-propylbenzamide hydrochloride] | > 10 µM
Cc1cc(N2CCOCC2)nc(N)c1CNC(=O)Cc1cc(F)cc(F)c1 [compound 61, N-[(2-Amino-4-methyl-6-morpholinopyridin-3-yl)methyl]-2-(3,5-difluorophenyl)acetamide] | > 10 µM

same assay, conditions: inactive = no channel opening activity detected up to a concentration of 10 μM

SMILES | KV7.2/3 channel opening activity (in words)
CCCCNC(=O)c1ccc(NCc2ccc(F)cc2)nc1N [compound 21, 2-Amino-N-butyl-6-[(4-fluorobenzyl)amino]nicotinamide] | inactive
CCCNC(=O)c1ccc(NCc2ccc(F)cc2)cc1CC.Cl [compound 47, 2-Ethyl-4-[(4-fluorobenzyl)amino]-N-propylbenzamide hydrochloride] | did not result in any improvement in terms of activity
Cc1cc(N2CCOCC2)nc(N)c1CNC(=O)Cc1cc(F)cc(F)c1 [compound 61, N-[(2-Amino-4-methyl-6-morpholinopyridin-3-yl)methyl]-2-(3,5-difluorophenyl)acetamide] | inactive

system: TAMH cells; assay: MTT cell viability assay, TAMH cells; settings: TAMH cells, MTT assay, 24 h exposure; 25% reduction of viability
From the text: (§1) In addition to the activity, basic toxicological properties of the newly synthesized compounds were also investigated by using the 3-(4,5-dimethylthiazol-2-yl)-2,5-diphenyltetrazolium bromide (MTT) cell viability assay on mouse TAMH and human HEP-G2 hepatic cell lines (see Table 2). Both cell lines are established for the evaluation of hepatotoxicity.[42],[43]
(§2) The culturing of the mouse liver TAMH and human liver cancer HEP-G2 cell lines and the MTT assay used to evaluate cell viability were carried out as previously described elsewhere in detail.[27],[29] […] The medium in the wells was then replaced with the medium containing the compounds. Control wells contained an equivalent number of cells and 1% (v/v) DMSO. Wells without cells were used to determine the background optical density (OD) and were treated as the control wells. After 24 or 48 h of incubation with the compound, the respective medium was replaced with a fresh medium supplemented with 10% (v/v) of a 2.5 mg/mL solution of MTT. The plates were incubated for 4 h. Then, the culture medium was carefully aspirated off and 50 μL of DMSO was added to each well to dissolve the formazan crystals. The ODs of each well were measured at λ = 570 nm with a SpectraMax 190 microplate reader.
(§3) The calculated T/Ccorr. values were plotted against the log(concentration). The LD50 and LD25 values were determined by using GraphPad Prism 6. […] The values are given as the mean with SD of at least three independent experiments.

SMILES | LD25
CCCCNC(=O)c1ccc(NCc2ccc(F)cc2)nc1N [compound 21, 2-Amino-N-butyl-6-[(4-fluorobenzyl)amino]nicotinamide] | 145 ± 7 µM
Cc1cc(N2CCOCC2)nc(N)c1CNC(=O)Cc1cc(F)cc(F)c1 [compound 61, N-[(2-Amino-4-methyl-6-morpholinopyridin-3-yl)methyl]-2-(3,5-difluorophenyl)acetamide] | >63 µM

same assay, conditions: TAMH cells, MTT assay, 24 h exposure; 50% reduction of viability

SMILES | LD50
CCCCNC(=O)c1ccc(NCc2ccc(F)cc2)nc1N [compound 21, 2-Amino-N-butyl-6-[(4-fluorobenzyl)amino]nicotinamide] | 149 ± 7 µM
CCCNC(=O)c1ccc(NCc2ccc(F)cc2)cc1CC.Cl [compound 47, 2-Ethyl-4-[(4-fluorobenzyl)amino]-N-propylbenzamide hydrochloride] | >125 µM
Cc1cc(N2CCOCC2)nc(N)c1CNC(=O)Cc1cc(F)cc(F)c1 [compound 61, N-[(2-Amino-4-methyl-6-morpholinopyridin-3-yl)methyl]-2-(3,5-difluorophenyl)acetamide] | >63 µM

system: HEP-G2 cells; assay: MTT cell viability assay, HEP-G2 cells; settings: HEP-G2 cells, MTT assay, 24 h exposure; 25% reduction of viability
From the text: as §1, §2, §3

SMILES | LD25
CCCCNC(=O)c1ccc(NCc2ccc(F)cc2)nc1N [compound 21, 2-Amino-N-butyl-6-[(4-fluorobenzyl)amino]nicotinamide] | 148 ± 11 µM
CCCNC(=O)c1ccc(NCc2ccc(F)cc2)cc1CC.Cl [compound 47, 2-Ethyl-4-[(4-fluorobenzyl)amino]-N-propylbenzamide hydrochloride] | 60 ± 9 µM
Cc1cc(N2CCOCC2)nc(N)c1CNC(=O)Cc1cc(F)cc(F)c1 [compound 61, N-[(2-Amino-4-methyl-6-morpholinopyridin-3-yl)methyl]-2-(3,5-difluorophenyl)acetamide] | >63 µM

same assay, conditions: HEP-G2 cells, MTT assay, 24 h exposure; 50% reduction of viability

SMILES | LD50
CCCCNC(=O)c1ccc(NCc2ccc(F)cc2)nc1N [compound 21, 2-Amino-N-butyl-6-[(4-fluorobenzyl)amino]nicotinamide] | 149 ± 11 µM
CCCNC(=O)c1ccc(NCc2ccc(F)cc2)cc1CC.Cl [compound 47, 2-Ethyl-4-[(4-fluorobenzyl)amino]-N-propylbenzamide hydrochloride] | 77 ± 15 µM
Cc1cc(N2CCOCC2)nc(N)c1CNC(=O)Cc1cc(F)cc(F)c1 [compound 61, N-[(2-Amino-4-methyl-6-morpholinopyridin-3-yl)methyl]-2-(3,5-difluorophenyl)acetamide] | >63 µM

system: not listed separately; assay: log D7.4 estimation by HPLC-based method; format: physicochemical; settings: HPLC, Phenomenex Luna 5 μm Phenyl-Hexyl column, pH 7.4, HPLC, calibration A1; read-out: logD7.4
Description: The log D7.4 values were estimated using a common HPLC-based method in accordance with guideline OPPTS 830.7570 of the United States Environmental Protection Agency (EPA). The HPLC measurements were performed with a Phenomenex Luna 5 μm Phenyl-Hexyl 100 Å column (150 × 4.6 mm). […]. Uracil was used to measure the unretained peak time. To obtain a calibration function, the logarithm of the capacity factors for the reference substances was then plotted against the corresponding log P values taken from the mentioned guideline, which are equivalent to the log D7.4 values for non-ionizable compounds like the reference substances used for calibration. With this calibration function, it was possible to estimate the log D7.4 value from the corresponding retention time for each compound to be tested. For the measurement, 2 mg of the reference substances was each dissolved in 1 mL of methanol. A reference mixture was then obtained by combining 50 μL of each reference solution. The reference mixture was measured before and after the substances to be tested. The mean value from both measurements was used for the calibration line. The substances to be tested were injected as a solution in methanol (2 mg/mL), and the retention time was determined as the mean value from two measurements.

SMILES | chromatographic logD
CCCCNC(=O)c1ccc(NCc2ccc(F)cc2)nc1N [compound 21, 2-Amino-N-butyl-6-[(4-fluorobenzyl)amino]nicotinamide] | 2.88
Cc1cc(N2CCOCC2)nc(N)c1CNC(=O)Cc1cc(F)cc(F)c1 [compound 61, N-[(2-Amino-4-methyl-6-morpholinopyridin-3-yl)methyl]-2-(3,5-difluorophenyl)acetamide] | 2.57

same assay, conditions: HPLC, Phenomenex Luna 5 μm Phenyl-Hexyl column, pH 7.4, HPLC, calibration B1; read-out: logD7.4

SMILES | chromatographic logD
CCCCNC(=O)c1ccc(NCc2ccc(F)cc2)nc1N [compound 21, 2-Amino-N-butyl-6-[(4-fluorobenzyl)amino]nicotinamide] | 2.86
Cc1cc(N2CCOCC2)nc(N)c1CNC(=O)Cc1cc(F)cc(F)c1 [compound 61, N-[(2-Amino-4-methyl-6-morpholinopyridin-3-yl)methyl]-2-(3,5-difluorophenyl)acetamide] | 2.58

same assay, conditions: HPLC, Phenomenex Luna 5 μm Phenyl-Hexyl column, pH 7.4, HPLC, calibration C; read-out: logD7.4

SMILES | chromatographic logD
CCCNC(=O)c1ccc(NCc2ccc(F)cc2)cc1CC.Cl [compound 47, 2-Ethyl-4-[(4-fluorobenzyl)amino]-N-propylbenzamide hydrochloride] | 3.24

same assay, conditions: HPLC, Phenomenex Luna 5 μm Phenyl-Hexyl column, pH 7.4, HPLC, calibration D; read-out: logD7.4

SMILES | chromatographic logD
CCCNC(=O)c1ccc(NCc2ccc(F)cc2)cc1CC.Cl [compound 47, 2-Ethyl-4-[(4-fluorobenzyl)amino]-N-propylbenzamide hydrochloride] | 3.23

same assay, conditions: HPLC, Phenomenex Luna 5 μm Phenyl-Hexyl column, pH 7.4, HPLC, mean of two calibrations; read-out: logD7.4 (mean)

SMILES | chromatographic logD
CCCCNC(=O)c1ccc(NCc2ccc(F)cc2)nc1N [compound 21, 2-Amino-N-butyl-6-[(4-fluorobenzyl)amino]nicotinamide] | 2.9
CCCNC(=O)c1ccc(NCc2ccc(F)cc2)cc1CC.Cl [compound 47, 2-Ethyl-4-[(4-fluorobenzyl)amino]-N-propylbenzamide hydrochloride] | 3.2
Cc1cc(N2CCOCC2)nc(N)c1CNC(=O)Cc1cc(F)cc(F)c1 [compound 61, N-[(2-Amino-4-methyl-6-morpholinopyridin-3-yl)methyl]-2-(3,5-difluorophenyl)acetamide] | 2.6

same assay, conditions: HPLC, Phenomenex Luna 5 μm Phenyl-Hexyl column, pH 7.4, estimated by HPLC-based method, pH 7.4; read-out: log D7.4

SMILES | chromatographic logD
CCCCNC(=O)c1ccc(NCc2ccc(F)cc2)nc1N [compound 21, 2-Amino-N-butyl-6-[(4-fluorobenzyl)amino]nicotinamide] | 2.9
CCCNC(=O)c1ccc(NCc2ccc(F)cc2)cc1CC.Cl [compound 47, 2-Ethyl-4-[(4-fluorobenzyl)amino]-N-propylbenzamide hydrochloride] | 3.2
Cc1cc(N2CCOCC2)nc(N)c1CNC(=O)Cc1cc(F)cc(F)c1 [compound 61, N-[(2-Amino-4-methyl-6-morpholinopyridin-3-yl)methyl]-2-(3,5-difluorophenyl)acetamide] | 2.6
